Test results taken from patent US20090053278A1, “ANTI-MICROBIAL COMPOSITIONS AND DEVICES AND METHODS OF USING THE SAME” (priority 2006, published 2009).
≈ marks a conversion by molar mass, not a printed value. Where a SMILES comes first, the peptide text is derived from it.

Assays:
[1] = tested on: Staphylococcus aureus (University of Calgary clinical isolate, strain 2645) grown as a biofilm; experiment: MBEC of biofilm, MBEC device, 24 hour exposure; assay type: cell-based; conditions: S. aureus biofilm, 10% MHB in PBS
Excerpt: (§1) The procedure provided describes an assay for testing 2 organisms (S. epidermidis and S. aureus) grown as a biofilm against 2 antimicrobial agents (gentamicin and an eCAP peptide) using a 96 well microtitre plate. The procedure will allow one to compare the MIC and MBEC values for each organism against each antimicrobial agent and against each other.
(§2) Microorganisms used were Staphylococcus epidermididis (RP62A; “Christensen Strain”) and Staphylococcus aureus (University of Calgary clinical isolate, strain 2645).
(§3) One set of test panels as shown above was prepared for each organism to determine the MIC and MBEC after a 24 hour exposure to each test material. SC wells are sterility controls for each experiment. GC is the growth control for each row. The working solution of gentamicin was 3 μmol/ml and 1 μmol/ml for eCAP. No SEM samples were taken for analysis due to test material shortage.
(§4) A working solution of eCAP or Gentamicin (1 μMoles/mL and 3 μMoles/mL respectively) was made in 10% MHB in sterile PBS. 200 μl of 10% MHB was added to ‘column’ 12 to serve as sterility controls (SC) and growth controls (GC) for each organism. 100 μl of 10% MHB was added to ‘columns’ 2 to 11. 200 μl of the appropriate working solution was added to ‘column’ 1 of the microtitre plate. 100 μl of the appropriate working solution was added to ‘column’ 2 and ‘column’ 3 of the microtitre plate. Using the multichannel micropipette, the contents of ‘column’ 3 was mixed by pipetting up and down. After mixing, 100 μl was transferred from the wells in ‘column’ 3 to the corresponding wells in ‘column’ 4. This was repeated until reaching ‘column’ 1. Using a pipet, 100 μl from each well in ‘column’ 11 was ejected. 100 μl of growth media was then added to all wells except A1 to H1, A2 to H2, and A12 to H12.
Antimicrobial Challenge of Biofilm: Rinse plate(s) of saline (200 μL per well) were prepared. Planktonic cells from biofilm that had formed on the lid of the MBEC device were rinsed by dipping the lid into the saline for 1-2 minutes. The lid was transferred to the challenge plate and incubated at 37° C. for 24 hours on a gyrating platform set at approximately 150 rpm.
Recovery of Surviving Biofilm: Rinse plate(s) of 0.9% sterile saline (200 μL per well) were prepared in a sterile 96 well micro titre plate. Pegs were rinsed in 0.9% sterile saline for 1 to 2 minutes. […] The recovery plates were incubated at 37° C. for 24 hours and read using the plate ready to determine MBEC values.
(§5) Therefore, 10% MHB was used as a diluent instead of TSB. […] The MIC and MBEC values were determined as the dilution immediately before the concentration where growth was first observed, as depicted in Table 9 below.

[2] = tested on: Staphylococcus epidermididis (RP62A; "Christensen Strain") grown as a biofilm; experiment: MBEC of biofilm, MBEC device, 24 hour exposure; assay type: cell-based, Staphylococcus epidermidis; conditions: S. epidermidis biofilm, 10% MHB in PBS, listed as eCAP sterilized by ethylene oxide
Excerpt: as §1, §2
as §3, with “shortage. […]” for “shortage.”
Recovery of Surviving Biofilm: Rinse plate(s) of 0.9% sterile saline (200 μL per well) were prepared in a sterile 96 well micro titre plate. […] The recovery plates were incubated at 37° C. for 24 hours and read using the plate ready to determine MBEC values.
as §5

[3] = tested on: Staphylococcus epidermididis (RP62A; "Christensen Strain"); experiment: Planktonic MIC, MBEC device, 24 hour exposure; assay type: cell-based, Staphylococcus epidermidis; conditions: S. epidermidis, 10% MHB in PBS
Excerpt: as §1, §2, §3
as §4, with “This was repeated until reaching ‘column’ 1. Using a pipet, 100 μl from each well in ‘column’ 11 was ejected. 100 μl of growth media was then added to all wells except A1 to H1, A2 to H2, and A12 to H12.” left out
Determination of Planktonic MIC: The challenge plate was incubated at 37° C. for 24 hours and read using a plate reader to determine MIC values. The MIC (minimum inhibitory concentration) was determined for compound eCAP/gentamicin for each organism shed from the biofilm during the challenge incubation. […]
as §5

Enterococcis faecalis = experiment: in-vitro assay of peptide-coated plastic endodontic obturators; assay type: cell-based; conditions: peptide immobilized on plastic obturators; data not shown
Excerpt: Medical standard plastic endodontic obturators were coated with an antimicrobial peptide. […] The obturators were coated with a tie layer. A parylene coating containing a reactive molecule specific for the N-terminus region of the peptide (“Photopolymer”) was then applied over the tie layer. The peptide WLBU-2 (SEQ ID NO. 179) was applied to the parylene coating and exposed to UV light to facilitate covalent bonding of the peptide with the parylene coating. Non-coated obturators were used as controls. All samples and controls were subjected to ethylene oxide sterilization. The coated samples were placed in 75% relative humidity overnight.

[4] = antimicrobial activity retained after sterilization
Excerpt: In a useful embodiment of the present invention, the antimicrobial peptides may retain antibacterial activity after a device coated with the antimicrobial peptide is sterilized.

[5] = listed as eCAP sterilized by ethylene oxide

CC(C)[C@H](NC(=O)[C@H](Cc1c[nH]c2ccccc12)NC(=O)[C@H](CCCNC(=N)N)NC(=O)[C@H](CCCNC(=N)N)NC(=O)[C@@H](NC(=O)[C@@H](NC(=O)[C@H](CCCNC(=N)N)NC(=O)[C@@H](NC(=O)[C@@H](NC(=O)[C@H](CCCNC(=N)N)NC(=O)[C@H](CCCNC(=N)N)NC(=O)[C@H](Cc1c[nH]c2ccccc12)NC(=O)[C@@H](NC(=O)[C@H](CCCNC(=N)N)NC(=O)[C@H](CCCNC(=N)N)NC(=O)[C@@H](NC(=O)[C@H](CCCNC(=N)N)NC(=O)[C@H](CCCNC(=N)N)NC(=O)[C@@H](NC(=O)[C@H](Cc1c[nH]c2ccccc12)NC(=O)[C@H](CCCNC(=N)N)NC(=O)[C@@H](N)CCCNC(=N)N)C(C)C)C(C)C)C(C)C)C(C)C)C(C)C)C(C)C)C(C)C)C(=O)N[C@@H](CCCNC(=N)N)C(=O)N[C@@H](CCCNC(=N)N)C(=O)O [Low dose irradiated eCAP] (H-RRWVRRVRRVWRRVVRVVRRWVRR-OH; N-terminus and C-terminus assumed)
MBEC ([1]; listed as eCAP sterilized by low dose irradiation): approximately 0.063 μmol/ml

CC(C)[C@H](NC(=O)[C@H](Cc1c[nH]c2ccccc12)NC(=O)[C@H](CCCNC(=N)N)NC(=O)[C@H](CCCNC(=N)N)NC(=O)[C@@H](NC(=O)[C@@H](NC(=O)[C@H](CCCNC(=N)N)NC(=O)[C@@H](NC(=O)[C@@H](NC(=O)[C@H](CCCNC(=N)N)NC(=O)[C@H](CCCNC(=N)N)NC(=O)[C@H](Cc1c[nH]c2ccccc12)NC(=O)[C@@H](NC(=O)[C@H](CCCNC(=N)N)NC(=O)[C@H](CCCNC(=N)N)NC(=O)[C@@H](NC(=O)[C@H](CCCNC(=N)N)NC(=O)[C@H](CCCNC(=N)N)NC(=O)[C@@H](NC(=O)[C@H](Cc1c[nH]c2ccccc12)NC(=O)[C@H](CCCNC(=N)N)NC(=O)[C@@H](N)CCCNC(=N)N)C(C)C)C(C)C)C(C)C)C(C)C)C(C)C)C(C)C)C(C)C)C(=O)N[C@@H](CCCNC(=N)N)C(=O)N[C@@H](CCCNC(=N)N)C(=O)O [High dose Irradiated eCAP] (H-RRWVRRVRRVWRRVVRVVRRWVRR-OH; N-terminus and C-terminus assumed)
MBEC ([1]; listed as eCAP sterilized by high dose irradiation): approximately 0.016 μmol/ml

CC(C)[C@H](NC(=O)[C@H](Cc1c[nH]c2ccccc12)NC(=O)[C@H](CCCNC(=N)N)NC(=O)[C@H](CCCNC(=N)N)NC(=O)[C@@H](NC(=O)[C@@H](NC(=O)[C@H](CCCNC(=N)N)NC(=O)[C@@H](NC(=O)[C@@H](NC(=O)[C@H](CCCNC(=N)N)NC(=O)[C@H](CCCNC(=N)N)NC(=O)[C@H](Cc1c[nH]c2ccccc12)NC(=O)[C@@H](NC(=O)[C@H](CCCNC(=N)N)NC(=O)[C@H](CCCNC(=N)N)NC(=O)[C@@H](NC(=O)[C@H](CCCNC(=N)N)NC(=O)[C@H](CCCNC(=N)N)NC(=O)[C@@H](NC(=O)[C@H](Cc1c[nH]c2ccccc12)NC(=O)[C@H](CCCNC(=N)N)NC(=O)[C@@H](N)CCCNC(=N)N)C(C)C)C(C)C)C(C)C)C(C)C)C(C)C)C(C)C)C(C)C)C(=O)N[C@@H](CCCNC(=N)N)C(=O)N[C@@H](CCCNC(=N)N)C(=O)O [Ethylene oxide eCAP] (H-RRWVRRVRRVWRRVVRVVRRWVRR-OH; N-terminus and C-terminus assumed)
MBEC [2]: 0.0078 µmol/mL | MIC [3, 5]: 3.9 µM (≈ 13.3 µg/mL) | MBEC [1, 5]: approximately 0.0039 μmol/ml

Gentamicin [reference compound]
MIC [3]: 1500 µM | MBEC [1]: 1.5 µmol/mL

CC(C)[C@H](NC(=O)[C@H](Cc1c[nH]c2ccccc12)NC(=O)[C@H](CCCNC(=N)N)NC(=O)[C@H](CCCNC(=N)N)NC(=O)[C@@H](NC(=O)[C@@H](NC(=O)[C@H](CCCNC(=N)N)NC(=O)[C@@H](NC(=O)[C@@H](NC(=O)[C@H](CCCNC(=N)N)NC(=O)[C@H](CCCNC(=N)N)NC(=O)[C@H](Cc1c[nH]c2ccccc12)NC(=O)[C@@H](NC(=O)[C@H](CCCNC(=N)N)NC(=O)[C@H](CCCNC(=N)N)NC(=O)[C@@H](NC(=O)[C@H](CCCNC(=N)N)NC(=O)[C@H](CCCNC(=N)N)NC(=O)[C@@H](NC(=O)[C@H](Cc1c[nH]c2ccccc12)NC(=O)[C@H](CCCNC(=N)N)NC(=O)[C@@H](N)CCCNC(=N)N)C(C)C)C(C)C)C(C)C)C(C)C)C(C)C)C(C)C)C(C)C)C(=O)N[C@@H](CCCNC(=N)N)C(=O)N[C@@H](CCCNC(=N)N)C(=O)O [WLBU-2, RRWVRRVRRVWRRVVRVVRRWVRR] (H-RRWVRRVRRVWRRVVRVVRRWVRR-OH; N-terminus and C-terminus assumed)
efficacy against Enterococcis faecalis of immobilized peptide (Enterococcis faecalis): efficacy against Enterococcis faecalis | effect of sterilization methods on antimicrobial activity ([4]; high and low dose gamma radiated and ethylene oxide, MIC/MBEC against S. aureus and S. epidermidis): not detrimental to its antimicrobial activity | antimicrobial activity after ethylene oxide sterilization ([4]; peptide coated on a substrate): retained antimicrobial activity | MIC ([3]; listed as eCAP): 3.9 µM (≈ 13.3 µg/mL)
